From patent US20200069552A1, “COSMETIC AND/OR DERMATOLOGICAL COMPOSITION, AND USES THEREOF IN THE COSMETIC FIELD AND IN THE ADJUVANT TREATMENT OF DERMATOLOGICAL PATHOLOGIES” (ISTITUTO GANASSINI S.P.A. DI RICERCHE BIOCHIMICHE, priority 2017, published 2020)

Assay: Viscosity at 25° C. with a Brookfield viscometer DV-I
Type: physicochemical

With `CC(=O)Oc1c(C)c(C)c2c(c1C)CCC(C)(CCC[C@H](C)CCC[C@H](C)CCCC(C)C)O2` (some centres unmarked) [Comp A, Vitamin E acetate] the “viscosity, in words” value (25° C.) was “extremely fluid” and the “Viscosity at 25° C.” value (Rotor G = 2, 10 rpm) was 3200 cP.
